Measurements taken from patent publication US10947366B2, “Hollow mineral tubes comprising essential oils and uses thereof” (TECHNION RESEARCH & DEVELOPMENT FOUNDATION LTD., priority 2015, dated 2021).
Like-named read-outs stand apart in the source and are kept apart here.

Experiments:
[1] = EO content in films after melt compounding and processing, determined by TGA; type: physicochemical; settings: pure EO in LDPE film without HNTs, initial 4 %
Procedure: (§1) Hybrids were characterized by thermal gravimetric analysis (TGA) using TGA-Q5000 system (TA instruments, USA) at a heating rate of 20° C./min under nitrogen atmosphere, starting at room temperature up to 600° C.
Table 4 below summarizes the carvacrol and HNTs content in different films (following melt compounding and processing) determined by TGA (initial carvacrol content, pre-processing, was 4 wt % and initial HNTs content was 2 wt %).
The resulting films were studied by thermal gravimetric analysis (TGA) in order to examine the effect of the HNTs carriers on the residual carvacrol content following the harsh high-temperature melt-compounding and processing of PA. Table 5 summarizes the results of these experiments showing carvacrol content in different carvacrol-containing films, determined by TGA.
The EOs content and distribution within the LDPE matrix are important parameters, crucial in determining the mechanical and antimicrobial performance of the nanocomposite systems (R. Shemesh et al., 2015). Thus, the total volatile content within the LDPE-based films was investigated using TGA, and the results are summarized in Table 14 showing carvacrol and thymol concentrations in different LDPE-based films as determined by TGA and FTIR spectroscopy.

E. coli = assay: Agar diffusion assay (Kirby-Bauer disk diffusion) of LDPE-based films; type: cell-based; settings: dose additivity model
Procedure: Fresh LDPE/(HNTs/CV-TY), LDPE/(HNTs/CV) and LDPE/TY films (12 mm in diameter and 150 μm thick) were conditioned at 60° C. for different time intervals to accelerate the release of the EOs from the films. The films were sampled after different durations, and the content of the respective EOs were determined by Fourier-transform infrared spectroscopy in transmission mode. Subsequently, the discs were placed onto the surface of a Luria broth (LB) agar plate seeded with 10^8 CFU ml^−1 of E. coli culture (0.1 mL). […] All tests were performed in triplicates, and at least 15 different specimens are studied for each film type of each. Neat LDPE films were used as a negative control.
Interactions between CV and TY were assessed based on the results obtained by the agar diffusion assay studies. Two common models of synergistic activity are applied:
(1) effect additivity (Axelrad, Howard, & McLean, 2002) and (2) dose additivity (Berenbaum, 1978). […] The second model is based on building curves that illustrate various combinations of two antimicrobials that produce the same effect. Antimicrobial doses of the same efficiency are connected by the additivity line that predicts a zero interaction. Deviations from this prediction can be interpreted as antagonism or synergy. […]

[2] = at 20° C.-25° C.; cited from earlier work
E. coli (ATCC 8739) = assay: Chequerboard antimicrobial susceptibility to pure carvacrol, thymol and their combinations; type: cell-based; settings: Escherichia coli, ATCC8739
Procedure: Bacterial susceptibility to pure carvacrol, thymol and their mixtures was characterized by the standard chequerboard procedure for antimicrobial susceptibility for combination of antimicrobials (Franzot & Casadevall, 1997; Pei, Zhou, Ji, & Xu, 2009).
Accordingly, in exemplary procedures, stock aqueous emulsions of thymol and carvacrol (at a concentration of 6400 mg L^−1 in MillyQ water, […]) are prepared by ultrasonication (Vibra cell VCX 750, Sonics & Materials Inc., USA) for 3 min at a constant amplitude of 40%, on ice bath using small amounts of Tween-80. […] The plate is sealed with SealPlate® (Excel Scientific Inc., Victorville, CV, US) incubated at 37° C. for 4 h under gentle shacking in a microplate reader (Varioskan Flash, Thermo Scientific, USA). Absorbance measurements are recorded at 600 nm every 3 min. […]
The MIC of carvacrol and thymol and their combination against E. coli (ATCC 8739) were determined using the standard chequerboard procedure for antimicrobial susceptibility for combination of antimicrobials (Franzot & Casadevall, 1997; Pei et al., 2009).
FIG. 13A presents characteristic E. coli growth curves in media containing a constant thymol concentration (75 mg L^−1) and varying carvacrol concentrations (0 to 200 mg L^−1). […] While at a lower concentration (100 mg L^−1), a profound lag time of ˜200 min in bacterial growth is recorded. […]

[3] = Thermal gravimetric analysis (TGA) of EOs and HNTs/EO hybrids, thermal stability; type: physicochemical; settings: 20° C./min, nitrogen
Procedure: as §1
Thermal gravimetric analysis (TGA) is performed using TGA-Q5000 system (TA Instruments, USA). Samples are heated under nitrogen atmosphere from room temperature to 600° C. at a heating rate of 20° C. min^−1. The results are analyzed using Universal […] version 4.5A build 4.5.0.5 software.

Compound | reduction of EO concentration during high-temperature processing [1] | in-film EO concentration giving 19 mm inhibition zone (E. coli) | vapor pressure [2] | MIC (E. coli (ATCC 8739)) | temperature at which weight loss (evaporation) of the EO is completed [3] | MIC (E. coli (ATCC 8739); LB medium, 37° C., 4 h, inhibition = lag time above 200 min, read-out: MIC)
Cc1ccc(C(C)C)cc1O [carvacrol, Carvacrol] | 55% | 1.5% | 0.023 mmHg | 200 µg/mL | about 165 °C | –
CC(C)=CCCC(C)=CC=O [citral, Citral] | – | – | 0.22 mmHg | – | – | –
C=CC(C)(O)CCC=C(C)C (centres unmarked) [linalool, Linalool] | – | – | 0.17 mmHg | – | – | –
Cc1ccc(C(C)C)c(O)c1 [thymol, Thymol] | 35% | 1.4% | 0.002 mmHg | – | – | 300 µg/mL
